Laboratory results: publication PMC9635472, “Design, synthesis, and biological evaluation of novel ciprofloxacin derivatives as potential anticancer agents targeting topoisomerase II enzyme” (Journal of Enzyme Inhibition and Medicinal Chemistry, 2022)

Legend:
[1] = test system: human prostate carcinoma (PC-3) cell line; assay: MTT cell viability assay, PC-3 cells; type: cell-based; details: prostate cancer cell line PC-3, treatment for 24 h (table title), means of three experiments, read-out: IC50 (μM* ± SD) PC-3
Protocol: (§1) Human bladder cancer (T-24) and human prostate carcinoma (PC-3) cell lines were obtained from American Type Culture Collection (ATCC; Manassas, VA USA). Cells were maintained in Dulbecco’s modified Eagle medium with 10% foetal bovine serum at 37 °C and 5% CO2. All the operations were carried out under strict aseptic conditions. The culture medium was removed to a centrifuge tube containing 9.0 ml complete culture medium and spanned at approximately 125 × g for 5 to 7 min. The cell layer was rinsed with 0.25% (w/v) trypsin- […] EDTA solution by which all traces of serum-containing inhibitor were removed. Trypsin EDTA solution 2.0 to 3.0 ml was added to a flask and cells were monitored under an inverted microscope until the cell layer was dispersed (usually within 5–15 min). A complete growth medium was added (6.0–8.0 ml), and cells were aspirated by gentle pipetting. The cell pellet was suspended with the recommended complete medium and dispensed into a 75 cm^2 culture flask. The culture vessel containing the complete growth medium was placed in the incubator for 24 h to at 37 °C. The cells were treated with different concentrations (0.39, 1.60, 6.25, 25, and 100 μg/ml) of each of the test compounds or doxorubicin, […], then the plates were examined under the inverted microscope and finally the MTT assay was carried out.
(§2) Anti-cancer activity of the newly synthesised compounds was evaluated in vitro against both T-24 and PC-3 cell lines according to the MTT method. Cells were seeded into 96-well plates (flat bottom) at a density of 10 000 cells/well for 24 h. The vial of MTT to be used was reconstituted with 3 ml of medium or balanced salt solution without phenol red and serum. then, a reconstituted MTT vial was added in an amount equal to 10% of the culture medium volume. Cultures were incubated for 2–4 h depending on the cell type and maximum cell density and removed from the incubator and the formazan crystals were dissolved via the addition of an amount of MTT solubilisation solution (M-8910) equal to the original culture medium volume. ROBONIK P2000 spectrophotometer at a wavelength of 570 nm was used to measure the colour intensity spectrophotometrically. The survival curve of both T-24 and PC-3 cells was obtained by plotting the percentage of surviving cells against the drug after each compound. The IC50 value for each test compound and the reference drug doxorubicin was calculated.
(§3) In this study, all the newly synthesised CP derivatives were subjected to anticancer activity evaluation against bladder (T-24) and prostate cancer (PC-3) cell lines. The compounds were evaluated for their activity using 5 doses determinations (100 μg/ml, 25 μg/ml, 6.25 μg/ml, 1.60 μg/ml, and 0.39 μg/ml). Their half-maximal inhibitory concentration (IC50) values were measured. Doxorubicin was chosen as a reference anticancer drug[65].

human DNA Topo II = target: T1, human DNA Topo II (Homo sapiens, UniProt P11388); assay: In vitro DNA Topo II-mediated relaxation assay (supercoiled pBR322); type: biochemical; details: for IC50: means of three experiments, read-out: Topo II IC50 (µM*±SD); for inhibition at 0.1 µM / inhibition at 1 µM / inhibition at 10 µM / inhibition at 100 µM: recombinant Topo II relaxation; for inhibition at 0.1 µM: compound at 0.1 μM, read-out: Percentage of inhibition of Topo II, 0.1 μM; for inhibition at 1 µM: compound at 1 μM, read-out: Percentage of inhibition of Topo II, 1 μM; for inhibition at 10 µM: compound at 10 μM, read-out: Percentage of inhibition of Topo II, 10 μM; for inhibition at 100 µM: compound at 100 μM, read-out: Percentage of inhibition of Topo II, 100 μM
T1 construct: purchased USB Corp., USA
T1 sequence (P11388 whole entry): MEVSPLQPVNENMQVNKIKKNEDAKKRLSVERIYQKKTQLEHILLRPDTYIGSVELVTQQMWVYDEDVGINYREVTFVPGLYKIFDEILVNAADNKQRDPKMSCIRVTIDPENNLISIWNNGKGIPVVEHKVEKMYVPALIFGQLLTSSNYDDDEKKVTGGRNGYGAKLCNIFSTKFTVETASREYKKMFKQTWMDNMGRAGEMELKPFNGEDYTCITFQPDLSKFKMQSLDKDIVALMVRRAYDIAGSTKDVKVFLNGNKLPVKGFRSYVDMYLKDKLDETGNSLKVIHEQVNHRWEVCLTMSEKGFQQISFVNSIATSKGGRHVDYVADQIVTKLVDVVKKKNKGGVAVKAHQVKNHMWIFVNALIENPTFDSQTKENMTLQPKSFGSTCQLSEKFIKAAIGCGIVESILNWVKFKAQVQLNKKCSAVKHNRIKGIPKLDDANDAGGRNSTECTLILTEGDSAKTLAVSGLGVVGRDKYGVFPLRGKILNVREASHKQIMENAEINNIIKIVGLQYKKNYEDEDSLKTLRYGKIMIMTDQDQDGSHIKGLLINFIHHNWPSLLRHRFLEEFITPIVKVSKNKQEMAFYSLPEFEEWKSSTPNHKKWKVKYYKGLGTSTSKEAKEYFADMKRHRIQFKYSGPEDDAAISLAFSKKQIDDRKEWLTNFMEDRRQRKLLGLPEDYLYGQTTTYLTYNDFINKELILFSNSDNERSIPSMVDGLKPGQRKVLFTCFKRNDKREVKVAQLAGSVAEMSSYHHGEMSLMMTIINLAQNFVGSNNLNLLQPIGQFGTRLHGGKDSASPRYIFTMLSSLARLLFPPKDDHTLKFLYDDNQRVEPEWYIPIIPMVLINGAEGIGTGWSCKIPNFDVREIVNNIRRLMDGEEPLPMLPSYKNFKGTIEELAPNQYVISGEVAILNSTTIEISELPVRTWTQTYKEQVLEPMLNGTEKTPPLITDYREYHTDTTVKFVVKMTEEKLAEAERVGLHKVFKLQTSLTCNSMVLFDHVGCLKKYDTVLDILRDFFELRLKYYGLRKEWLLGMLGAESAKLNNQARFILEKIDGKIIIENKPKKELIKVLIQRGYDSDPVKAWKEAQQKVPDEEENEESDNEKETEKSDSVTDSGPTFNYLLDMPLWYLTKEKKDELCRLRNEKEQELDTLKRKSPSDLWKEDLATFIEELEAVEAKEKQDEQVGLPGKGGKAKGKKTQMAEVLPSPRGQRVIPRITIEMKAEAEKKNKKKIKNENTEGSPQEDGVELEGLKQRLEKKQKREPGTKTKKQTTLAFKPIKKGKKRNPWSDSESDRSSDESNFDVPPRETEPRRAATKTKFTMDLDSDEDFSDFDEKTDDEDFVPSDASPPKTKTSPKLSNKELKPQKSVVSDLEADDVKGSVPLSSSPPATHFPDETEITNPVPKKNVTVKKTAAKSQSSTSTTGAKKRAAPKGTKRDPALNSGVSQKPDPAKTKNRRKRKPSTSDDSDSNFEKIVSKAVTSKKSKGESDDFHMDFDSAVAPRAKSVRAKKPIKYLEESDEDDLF
Protocol: DNA Topo II inhibitory activities of the targeted compounds were measured as follows. A mixture of 100 ng of supercoiled pBR322 plasmid DNA (Fermentas, USA) and 2 units of human DNA Topo II (USB Corp., USA) was incubated with and without the prepared compounds in the assay buffer (10 µM Tris-HCl pH 7.9) containing 50 µM NaCl, 4 µM MgCl2, 1 µM EDTA, 1 µM ATP, and 15 mg/ml bovine serum albumin for 30 min at 37 °C. The reaction in a final volume of 10 µl was terminated by the addition of 4 µl of 6 µM EDTA. DNA samples were then electrophoresed on 1% agarose gel containing 0.5 µg/ml ethidium bromide in gel and buffer at high voltage (100–250 v) until the dye front has migrated about 4–6 cm down the gel. with a running buffer of TAE Tris-acetate– EDTA (TAE). Gels were stained for 15 min in water. DNA bands were visualised by transillumination with UV light and quantitated using AlphaI-maker TM (Alpha Innotech Corporation).
Well-known Topo II inhibitor doxorubicin was used as a positive control. The reaction products of Topo II relaxation assays were analysed by electrophoretic mobility and developed in ethidium bromide in the presence of UV light. The inhibitory activities were evaluated at 4 concentrations of 100, 10, 1, and 0.1 μM for all compounds as shown in (Figure 6). Topo II inhibitory activities of the tested compounds are summarised in (Table 2).

[2] = test system: Human bladder cancer (T-24) cell line; assay: MTT cell viability assay, T-24 cells; type: cell-based; details: bladder cancer cell line T-24, treatment for 24 h (table title), means of three experiments, read-out: IC50 (μM* ± SD) T-24
Protocol: as §1, §2, §3

active caspase-3 = assay: Active caspase-3 ELISA in T-24 cells; type: cell-based, human; details: 6 at 5.68 μM, 8a at 3.36 μM, means of three experiments
Protocol: The level of the apoptotic marker caspase-3 was measured using The Invitrogen Caspase-3 (active) Human ELISA Kit. The procedure of the used kit was done according to the manufacturer’s instructions.
Caspase-3 (a key effector enzyme) plays an important role in apoptosis since its activation leads to catalysing specific enzymes responsible for DNA fragmentation, which leads to cell death. Apoptosis induction in T-24 cells by compounds 6 and 8a was investigated via caspase 3, compared to doxorubicin as a reference drug.

SMILES | melting point [°C] | IC50 [1] [µM] | IC50 (human DNA Topo II) [µM] | inhibition at 0.1 µM (human DNA Topo II) [%] | inhibition at 1 µM (human DNA Topo II) [%] | inhibition at 10 µM (human DNA Topo II) [%] | inhibition at 100 µM (human DNA Topo II) [%] | IC50 [2] [µM] | Caspase-3 conc. (pg/ml* ± SD) (active caspase-3) [pg/mL]
O=C(CN1CCN(c2cc3c(cc2F)c(=O)c(C(=O)O)cn3C2CC2)CC1)NN=C1CCCCC1 [Compound 7a, 7-(4-(2-(2-Cyclohexylidenehydrazinyl)-2-oxoethyl)piperazin-1-yl)-1-cyclopropyl-6-fluoro-4-oxo-1,4-dihydroquinoline-3-carboxylic acid] | 256 to 258 | 9.35 ± 0.48 | 4.99 ± 0.27 | 13.7 | 27.9 | 55.9 | 83.6 | 3.88 ± 0.21 | 
CC(=NNC(=O)CN1CCN(c2cc3c(cc2F)c(=O)c(C(=O)O)cn3C2CC2)CC1)c1ccc(Cl)cc1 [Compound 7b, 7-(4-(2-(2-(1-(4-Chlorophenyl)ethylidene)hydrazinyl)-2-oxoethyl)-piperazin-1-yl)-1-cyclopropyl-6-fluoro-4-oxo-1,4-dihydroquinoline-3-carboxylic acid] | 178 to 180 | 19 ± 0.96 | 3.34 ± 0.18 | 18.4 | 34 | 60.3 | 85.2 | 11.5 ± 0.63 | 
O=C(CN1CCN(c2cc3c(cc2F)c(=O)c(C(=O)O)cn3C2CC2)CC1)NNC(=O)Nc1ccc(Cl)c(C(F)(F)F)c1 [Compound 9a, 7-(4-(2-(2-((4-Chloro-3-(trifluoromethyl)phenyl)carbamoyl)-hydrazinyl)-2-oxoethyl)piperazin-1-yl)-1-cyclopropyl-6-fluoro-4-oxo-1,4-dihydroquinoline-3-carboxylic acid] | 186 to 188 | 67.2 ± 3.42 | 2.58 ± 0.14 | 23.6 | 40.3 | 57 | 86.5 | 4.35 ± 0.24 | 
COc1ccc(NC(=S)NNC(=O)CN2CCN(c3cc4c(cc3F)c(=O)c(C(=O)O)cn4C3CC3)CC2)cc1 [Compound 9c, 1-Cyclopropyl-6-fluoro-7-(4-(2-(2-((4-methoxyphenyl)carbamo-thioyl)hydrazinyl)-2-oxoethyl)piperazin-1-yl)-4-oxo-1,4-dihydroquinoline-3-carboxylic acid] | 238 to 240 | 4.85 ± 0.27 |  |  |  |  |  | 134 ± 7.23 | 
O=C(CN1CCN(c2cc3c(cc2F)c(=O)c(C(=O)O)cn3C2CC2)CC1)NNCC(=O)c1ccccc1 [Compound 10a, 1-Cyclopropyl-6-fluoro-4-oxo-7-(4-(2-oxo-2-(2-(2-oxo-2-phenyl-ethyl)hydrazinyl)ethyl)piperazin-1-yl)-1,4-dihydroquinoline-3-carboxylic acid] | 183 to 185 | 74.3 ± 3.78 |  |  |  |  |  | 45.4 ± 2.45 | 
O=C(CN1CCN(c2cc3c(cc2F)c(=O)c(C(=O)O)cn3C2CC2)CC1)NNCC(=O)c1cccc(Br)c1 [Compound 10b, 7-(4-(2-(2-(2-(3-Bromophenyl)-2-oxoethyl)hydrazinyl)-2-oxo-ethyl)piperazin-1-yl)-1-cyclopropyl-6-fluoro-4-oxo-1,4-dihydroquinoline-3-carboxylic acid] | 210 to 215 | 3.38 ± 0.18 |  |  |  |  |  | 17.2 ± 0.93 | 
O=C(CN1CCN(c2cc3c(cc2F)c(=O)c(C(=O)O)cn3C2CC2)CC1)NNCC(=O)c1ccc([N+](=O)[O-])cc1 [Compound 10c, 1-Cyclopropyl-6-fluoro-7-(4-(2-(2-(2-(4-nitrophenyl)-2-oxoethyl)-hydrazinyl)-2-oxoethyl)piperazin-1-yl)-4-oxo-1,4-dihydroquinoline-3-carboxylic acid] | 221 to 223 | 3.25 ± 0.167 | 1.69 ± 0.09 | 24.8 | 37.7 | 72.6 | 90.2 | 10.1 ± 0.55 | 
O=C(CN1CCN(c2cc3c(cc2F)c(=O)c(C(=O)O)cn3C2CC2)CC1)NN1C(=O)CCC1=O [Compound 11, 1-cyclopropyl-7-(4-(2-((2,5-dioxopyrrolidin-1-yl)amino)-2-oxoethyl)piperazin-1-yl)-6-fluoro-4-oxo-1,4-dihydroquinoline-3-carboxylic acid] | 184 to 186 | 82.2 ± 4.18 |  |  |  |  |  | 68.5 ± 3.69 | 
O=C(CN1CCN(c2cc3c(cc2F)c(=O)c(C(=O)O)cn3C2CC2)CC1)NN1C(=O)c2ccccc2C1=O [Compound 12, 1-cyclopropyl-7-(4-(2-((1,3-dioxoisoindolin-2-yl)amino)-2-oxoethyl)piperazin-1-yl)-6-fluoro-4-oxo-1,4-dihydroquinoline-3-carboxylic acid] | 190 to 192 | 126 ± 6.39 |  |  |  |  |  | 47 ± 1.09 | 
NC(=S)NNC(=O)CN1CCN(c2cc3c(cc2F)c(=O)c(C(=O)O)cn3C2CC2)CC1 [Compound 13, 7-(4-(2-(2-carbamothioylhydrazinyl)-2-oxoethyl)piperazin-1-yl)-1-cyclopropyl-6-fluoro-4-oxo-1,4-dihydroquinoline-3-carboxylic acid] | 188 to 200 | 30.5 ± 1.56 |  |  |  |  |  | 34.5 ± 1.86 | 
O=C(CN1CCN(c2cc3c(cc2F)c(=O)c(C(=O)O)cn3C2CC2)CC1)NN=C1NC(=O)CS1 [Compound 14, 1-cyclopropyl-6-fluoro-4-oxo-7-(4-(2-oxo-2-(2-(4-oxothiazolidin-2-ylidene)hydrazinyl)ethyl)piperazin-1-yl)-1,4-dihydroquinoline-3-carboxylic acid] | 240 to 242 | 6.49 ± 0.24 |  |  |  |  |  | 19.5 ± 0.58 | 
O=C(CN1CCN(c2cc3c(cc2F)c(=O)c(C(=O)O)cn3C2CC2)CC1)NN=c1[nH]c(-c2ccccc2)cs1 [Compound 15, 1-cyclopropyl-6-fluoro-4-oxo-7-(4-(2-oxo-2-(2-(4-phenylthiazol-2(3H)-ylidene)hydrazinyl)ethyl)piperazin-1-yl)-1,4-dihydroquinoline-3-carboxylic acid] | 256 to 258 | 7.54 ± 0.39 |  |  |  |  |  | 15.9 ± 0.87 | 
COc1cccc2c1C(=O)c1c(O)c3c(c(O)c1C2=O)C[C@@](O)(C(=O)CO)C[C@@H]3O[C@H]1C[C@H](N)[C@H](O)[C@H](C)O1 [Doxorubicin, reference compound] |  | 23.1 ± 1.18 | 1.72 ± 0.08 |  |  |  |  | 29.1 ± 1.56 | 598.8 ± 8.63
